Data on 27 molecules can be found in ChEMBL document CHEMBL4017512 (J Med Chem, 2017).

Assay [1] relates to HCT-116. Briefly: Antiproliferative activity against human HCT116 cells after 72 hrs by phosphatase assay. Format: functional, cell-based. The note with it: HCT-116, 72 h.
A short description of assay [2]: Cytotoxicity against human HCT116/VM46 cells assessed as reduction in cell viability after 72 hrs by phosphatase assay. The class given is cell-based. The note with it: HCT-116/VM46, 72 h.
Assay [3] has as its system L1210. Briefly: Antiproliferative activity against mouse L1210 cells after 72 hrs by phosphatase assay. The note with it: L1210, 72 h. Format: functional, cell-based.

In general, IC50 refers to the concentration that gives 50% inhibition.

Take `CC[C@]1(NC(=O)c2ccc(OC)c(Br)c2)C[C@H]2CN(CCc3c([nH]c4ccccc34)[C@@](C(=O)OC)(c3cc4c(cc3OC)N(C)[C@H]3[C@@](O)(C(=O)OC)[C@H](OC(C)=O)[C@]5(CC)C=CCN6CC[C@]43[C@@H]65)C2)C1`: the IC50 was 6.2 nM in assay [1], 40 nM in assay [2] and 5.1 nM in assay [3].

For `CC[C@]1(NC(=O)c2ccc([N+](=O)[O-])cc2)C[C@H]2CN(CCc3c([nH]c4ccccc34)[C@@](C(=O)OC)(c3cc4c(cc3OC)N(C)[C@H]3[C@@](O)(C(=O)OC)[C@H](OC(C)=O)[C@]5(CC)C=CCN6CC[C@]43[C@@H]65)C2)C1`, the IC50 turned out to be 6.1 nM in assay [1], 60 nM in assay [2] and 6.1 nM in assay [3].

As to `CC[C@]1(NC(=O)c2ccc3ccncc3c2)C[C@H]2CN(CCc3c([nH]c4ccccc34)[C@@](C(=O)OC)(c3cc4c(cc3OC)N(C)[C@H]3[C@@](O)(C(=O)OC)[C@H](OC(C)=O)[C@]5(CC)C=CCN6CC[C@]43[C@@H]65)C2)C1`, the IC50 in assay [1] came to 0.4 nM; in assay [2] it was 3.7 nM; in assay [3], 0.4 nM.

For the molecule `CC[C@]1(NC(=O)c2ccc3ncoc3c2)C[C@H]2CN(CCc3c([nH]c4ccccc34)[C@@](C(=O)OC)(c3cc4c(cc3OC)N(C)[C@H]3[C@@](O)(C(=O)OC)[C@H](OC(C)=O)[C@]5(CC)C=CCN6CC[C@]43[C@@H]65)C2)C1`, the IC50 in assay [1] turned out to be 0.6 nM; in assay [2], 30 nM; in assay [3], 0.6 nM.

As to `CC[C@]1(NC(=O)c2ccc(OC(C)C)cc2)C[C@H]2CN(CCc3c([nH]c4ccccc34)[C@@](C(=O)OC)(c3cc4c(cc3OC)N(C)[C@H]3[C@@](O)(C(=O)OC)[C@H](OC(C)=O)[C@]5(CC)C=CCN6CC[C@]43[C@@H]65)C2)C1`, the IC50 in assay [1] is 0.8 nM; in assay [2], 6.6 nM; in assay [3], 0.7 nM.

For the molecule `C=CC(=O)N[C@@]1(CC)C[C@H]2CN(CCc3c([nH]c4ccccc34)[C@@](C(=O)OC)(c3cc4c(cc3OC)N(C)[C@H]3[C@@](O)(C(=O)OC)[C@H](OC(C)=O)[C@]5(CC)C=CCN6CC[C@]43[C@@H]65)C2)C1`, the IC50 in assay [1] amounted to 6 nM; in assay [2] it was 520 nM; in assay [3], 7 nM.

For `CC[C@]1(NC(=O)c2cccc(OC)c2)C[C@H]2CN(CCc3c([nH]c4ccccc34)[C@@](C(=O)OC)(c3cc4c(cc3OC)N(C)[C@H]3[C@@](O)(C(=O)OC)[C@H](OC(C)=O)[C@]5(CC)C=CCN6CC[C@]43[C@@H]65)C2)C1`, the IC50 in assay [1] is 0.8 nM; in assay [2], 8.7 nM; in assay [3], 0.6 nM.

As for `CC[C@]1(NC(=O)c2ccc3cccnc3c2)C[C@H]2CN(CCc3c([nH]c4ccccc34)[C@@](C(=O)OC)(c3cc4c(cc3OC)N(C)[C@H]3[C@@](O)(C(=O)OC)[C@H](OC(C)=O)[C@]5(CC)C=CCN6CC[C@]43[C@@H]65)C2)C1`, the figures for the IC50 in assay [1], in assay [2] and in assay [3] were 0.7 nM, 8.2 nM and 0.6 nM, respectively.

For `CC[C@]1(NC(=O)C(C)C)C[C@H]2CN(CCc3c([nH]c4ccccc34)[C@@](C(=O)OC)(c3cc4c(cc3OC)N(C)[C@H]3[C@@](O)(C(=O)OC)[C@H](OC(C)=O)[C@]5(CC)C=CCN6CC[C@]43[C@@H]65)C2)C1`, the IC50 came to 90 nM in assay [1], 1400 nM in assay [2] and 70 nM in assay [3].

`CC[C@]1(N=[N+]=[N-])C[C@H]2CN(CCc3c([nH]c4ccccc34)[C@@](C(=O)OC)(c3cc4c(cc3OC)N(C)[C@H]3[C@@](O)(C(=O)OC)[C@H](OC(C)=O)[C@]5(CC)C=CCN6CC[C@]43[C@@H]65)C2)C1`: the half-inhibitory concentration (IC50) in assay [2] was 5500 nM.

`CC[C@]1(NC(=O)c2cc3ccccc3o2)C[C@H]2CN(CCc3c([nH]c4ccccc34)[C@@](C(=O)OC)(c3cc4c(cc3OC)N(C)[C@H]3[C@@](O)(C(=O)OC)[C@H](OC(C)=O)[C@]5(CC)C=CCN6CC[C@]43[C@@H]65)C2)C1`: the IC50 in assay [1] was determined as 1.1 nM; in assay [2], 15 nM; in assay [3], 1.8 nM.

As to `CCOc1ccc(C(=O)N[C@@]2(CC)C[C@H]3CN(CCc4c([nH]c5ccccc45)[C@@](C(=O)OC)(c4cc5c(cc4OC)N(C)[C@H]4[C@@](O)(C(=O)OC)[C@H](OC(C)=O)[C@]6(CC)C=CCN7CC[C@]54[C@@H]76)C3)C2)cc1OCC`, the values for the IC50 in assay [1], in assay [2] and in assay [3] were 0.5 nM, 6 nM and 0.4 nM, respectively.

For the molecule `CC[C@]1(NC(=O)c2ccc(OCc3ccccc3)cc2)C[C@H]2CN(CCc3c([nH]c4ccccc34)[C@@](C(=O)OC)(c3cc4c(cc3OC)N(C)[C@H]3[C@@](O)(C(=O)OC)[C@H](OC(C)=O)[C@]5(CC)C=CCN6CC[C@]43[C@@H]65)C2)C1`, the IC50 in assay [1] was found to be 5.7 nM; in assay [2], 55 nM; in assay [3], 5.4 nM.

Regarding `CC[C@]1(NC(=O)c2cn(C)cn2)C[C@H]2CN(CCc3c([nH]c4ccccc34)[C@@](C(=O)OC)(c3cc4c(cc3OC)N(C)[C@H]3[C@@](O)(C(=O)OC)[C@H](OC(C)=O)[C@]5(CC)C=CCN6CC[C@]43[C@@H]65)C2)C1`, the IC50 was 50 nM in assay [1], greater than 1000 nM in assay [2] and 80 nM in assay [3].

Regarding `CCOc1ccc(C(=O)N[C@@]2(CC)C[C@H]3CN(CCc4c([nH]c5ccccc45)[C@@](C(=O)OC)(c4cc5c(cc4OC)N(C)[C@H]4[C@@](O)(C(=O)OC)[C@H](OC(C)=O)[C@]6(CC)C=CCN7CC[C@]54[C@@H]76)C3)C2)cc1`, the results for the IC50 in assay [1], in assay [2] and in assay [3] were 0.6 nM, 2.8 nM and 0.6 nM, respectively.

`CC[C@]1(NC(=O)C2CCCCC2)C[C@H]2CN(CCc3c([nH]c4ccccc34)[C@@](C(=O)OC)(c3cc4c(cc3OC)N(C)[C@H]3[C@@](O)(C(=O)OC)[C@H](OC(C)=O)[C@]5(CC)C=CCN6CC[C@]43[C@@H]65)C2)C1`: the IC50 in assay [1] amounted to 70 nM; in assay [2] it was 760 nM; in assay [3], 55 nM.

As to `CC[C@]1(NC(=O)c2cnco2)C[C@H]2CN(CCc3c([nH]c4ccccc34)[C@@](C(=O)OC)(c3cc4c(cc3OC)N(C)[C@H]3[C@@](O)(C(=O)OC)[C@H](OC(C)=O)[C@]5(CC)C=CCN6CC[C@]43[C@@H]65)C2)C1`, the results for the IC50 in assay [1], in assay [2] and in assay [3] were 3.5 nM, 65 nM and 3.9 nM, respectively.

For `CC[C@]1(NC(=O)c2ccccc2OC(F)(F)F)C[C@H]2CN(CCc3c([nH]c4ccccc34)[C@@](C(=O)OC)(c3cc4c(cc3OC)N(C)[C@H]3[C@@](O)(C(=O)OC)[C@H](OC(C)=O)[C@]5(CC)C=CCN6CC[C@]43[C@@H]65)C2)C1`, the IC50 in assay [1] was 480 nM; in assay [2], 620 nM; in assay [3], 450 nM.

Turning to `CC[C@]1(NC(=O)C2CCSCC2)C[C@H]2CN(CCc3c([nH]c4ccccc34)[C@@](C(=O)OC)(c3cc4c(cc3OC)N(C)[C@H]3[C@@](O)(C(=O)OC)[C@H](OC(C)=O)[C@]5(CC)C=CCN6CC[C@]43[C@@H]65)C2)C1`, the IC50 stood at 450 nM in assay [1], 5200 nM in assay [2] and 460 nM in assay [3].

Turning to `CC[C@]1(NC(=O)c2ccc(NC(=O)OC(C)(C)C)c(C)c2)C[C@H]2CN(CCc3c([nH]c4ccccc34)[C@@](C(=O)OC)(c3cc4c(cc3OC)N(C)[C@H]3[C@@](O)(C(=O)OC)[C@H](OC(C)=O)[C@]5(CC)C=CCN6CC[C@]43[C@@H]65)C2)C1`, the IC50 came out at 5.8 nM in assay [1], 30 nM in assay [2] and 5.6 nM in assay [3].

Consider `CC[C@]1(NC(=O)c2ccccc2C)C[C@H]2CN(CCc3c([nH]c4ccccc34)[C@@](C(=O)OC)(c3cc4c(cc3OC)N(C)[C@H]3[C@@](O)(C(=O)OC)[C@H](OC(C)=O)[C@]5(CC)C=CCN6CC[C@]43[C@@H]65)C2)C1`, for which the IC50 in assay [1] was determined as 50 nM; in assay [2], 540 nM; in assay [3] it was 55 nM.

In the case of `CC[C@]1(NC(=O)c2ccc3c(c2)CCO3)C[C@H]2CN(CCc3c([nH]c4ccccc34)[C@@](C(=O)OC)(c3cc4c(cc3OC)N(C)[C@H]3[C@@](O)(C(=O)OC)[C@H](OC(C)=O)[C@]5(CC)C=CCN6CC[C@]43[C@@H]65)C2)C1`, the IC50 turned out to be 0.25 nM in assay [1], 2.4 nM in assay [2] and 0.3 nM in assay [3].

With `CC[C@]1(NC(=O)c2cccc(S(=O)(=O)F)c2)C[C@H]2CN(CCc3c([nH]c4ccccc34)[C@@](C(=O)OC)(c3cc4c(cc3OC)N(C)[C@H]3[C@@](O)(C(=O)OC)[C@H](OC(C)=O)[C@]5(CC)C=CCN6CC[C@]43[C@@H]65)C2)C1`, the IC50 in assay [1] was found to be 30 nM; in assay [2] it was 570 nM; in assay [3], 40 nM.

Take `CC[C@]1(NC(=O)C2CC2)C[C@H]2CN(CCc3c([nH]c4ccccc34)[C@@](C(=O)OC)(c3cc4c(cc3OC)N(C)[C@H]3[C@@](O)(C(=O)OC)[C@H](OC(C)=O)[C@]5(CC)C=CCN6CC[C@]43[C@@H]65)C2)C1`: the results for the IC50 in assay [1], in assay [2] and in assay [3] were 6.1 nM, 95 nM and 5.5 nM, respectively.

In the case of `CC[C@]1(NC(=O)c2ccc3ccccc3n2)C[C@H]2CN(CCc3c([nH]c4ccccc34)[C@@](C(=O)OC)(c3cc4c(cc3OC)N(C)[C@H]3[C@@](O)(C(=O)OC)[C@H](OC(C)=O)[C@]5(CC)C=CCN6CC[C@]43[C@@H]65)C2)C1`, the IC50 in assay [1] was 40 nM; in assay [2], 270 nM; in assay [3], 40 nM.

In the case of `CC[C@@H]1C[C@H]2CN(CCc3c([nH]c4ccccc34)[C@@](C(=O)OC)(c3cc4c(cc3OC)N(C)[C@H]3[C@@](O)(C(=O)OC)[C@H](OC(C)=O)[C@]5(CC)C=CCN6CC[C@]43[C@@H]65)C2)C1` [ROSEAMINE], in assay [2], the IC50 turned out to be 600 nM.

Take `CC[C@]1(N)C[C@H]2CN(CCc3c([nH]c4ccccc34)[C@@](C(=O)OC)(c3cc4c(cc3OC)N(C)[C@H]3[C@@](O)(C(=O)OC)[C@H](OC(C)=O)[C@]5(CC)C=CCN6CC[C@]43[C@@H]65)C2)C1`: the IC50 in assay [2] is greater than 10000 nM.
